Experimental data from patent US6461997B1, “Triazole sulfones having herbicidal activity” (Monsanto Technology LLC, priority 1999, dated 2002).

Columns and labels:
PANDI (fall panicum) = assay: Pre-emergence herbicidal activity, warm season; format: in vivo, Panicum dichotomiflorum; settings: GR80 = lowest tested rate (300, 100, 30, 10 g/ha) with 80% or greater inhibition; approx. 14 days after treating; 30/21° C.
Summary of the method: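 Activity is expressed as the rate giving 80% inhibition, with 300, 100, 30 and 10 g/ha typically tested. An asterisk marks activity short of 80% at the top rate. Warm-season grasses were held at 30/21 °C; cool-season blackgrass and wild buckwheat at 18/13 °C; scoring at about 14 days.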

[1] = system: VERPE (creeping speedwell); assay: Pre-emergence herbicidal activity, cool season; format: in vivo, Veronica persicaria; settings: lowest tested rate with 80% or greater inhibition; rates 300, 100, 30, 10 g/ha; about 14 days
Summary of the method: (§1)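 GR80 values derive from percent inhibition relative to untreated plants, read roughly 14 days after sowing and pre-emergence soil-surface treatment (compound in 50:50 acetone/water; rates typically 10, 30, 100, 300 g/ha). Warm-season weeds grew at 30/21° C day/night, cool-season ones at 18/13° C; an asterisk marks activity without reaching 80% at the highest rate.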

[2] = system: LAMPU (purple deadnettle); assay: Pre-emergence herbicidal activity, cool season; format: in vivo, Lamium purpureum; settings: lowest tested rate with 80% or greater inhibition; rates 300, 100, 30, 10 g/ha; about 14 days
Summary of the method: as §1

[3] = system: AEGCY (jointed goatgrass); assay: Post-emergence herbicidal activity, cool season; format: in vivo, Aegilops cylindrica; settings: abraded plants sprayed at 300, 100, 30 and 10 g/ha; about 14 days after treatment
Procedure: In another set of tests, the post-emergence activity of compounds of this invention was evaluated on the cool season species listed above. The following procedure was used.
A pre-prepared topsoil mixture (described above) was placed in a pot and compacted to a depth of 1.0 to 1.25 cm from the top of the pot. Seeds of each of several monocotyledonous and dicotyledonous annual plant species were placed on top of the soil. The seeds were covered with a mixture of 50% topsoil and 50% Rediearth™ in sufficient quantity to level-fill the pots. The pots were then placed on a greenhouse bench and subirrigated as needed.
When plants growing from the seeds had emerged and reached a suitable growth stage for post-emergence treatment, typically 9 to 14 days after planting, above-ground parts of the plants were subjected to a pre-treatment involving abrasion to create greater opportunity for foliar uptake of subsequently applied compounds. Abrasion was performed using garnet 200w particles applied with a Sears Craftsman hand-held sandblaster operated at approximately 850 kPa (50 psig) pressure.
A known amount of each test compound dissolved or suspended in an appropriate organic solvent was diluted with a 50:50 mix of acetone and water and applied to the plants by spraying with a standard spray nozzle in a spray volume of […] at a spray pressure of 511 kPa (30 psig). Only the compounds of Examples 1, 8-15 and 17-22 were included in post-emergence tests. Application rates for these compounds were 300, 100, 30 and 10 g/ha. Control plants were abraded but not sprayed.
After treatment the plants were placed in a greenhouse with an 18/13° C. day/night temperature regime and were subsequently watered as needed for growth. Approximately 14 days after treatment, the plants were observed and herbicidal efficacy recorded as percent inhibition by comparison with control plants. GR80 values were assigned for each compound as described above for the pre-emergence tests.

DATST (jimsonweed) = assay: Pre-plant incorporated (PPI) herbicidal activity, warm season; format: in vivo, Datura stramonium; settings: for Percent inhibition DATST / inhibition at 10 g/ha / inhibition at 30 g/ha / inhibition at 100 g/ha / inhibition at 300 g/ha / inhibition at 900 g/ha: PPI application; for inhibition at 10 g/ha / inhibition at 30 g/ha / inhibition at 100 g/ha / inhibition at 300 g/ha / inhibition at 900 g/ha: Datura stramonium, read-out: Percent inhibition DATST; for PPI activity (GR80) DATST: pre-plant incorporated, GR80 = lowest tested rate with 80% or greater inhibition, approx. 14 days after treating, 30/21° C.
Procedure: (§2) In another set of tests, the pre-plant incorporated (PPI) activity of compounds of this invention was evaluated on the same species as for the pre-emergence tests described above. In the PPI tests the following procedure, designed to simulate PPI application, was used.
(§3) A pre-prepared topsoil mixture (described above) was placed in a pot and compacted to a depth of 1.0 to 1.25 cm from the top of the pot. Seeds of each of several monocotyledonous and dicotyledonous annual plant species were placed on top of the soil. A sufficient quantity of soil to cover the seeds and level fill the pot was weighed into an open container. A known amount of the test compound was dissolved or suspended in an organic solvent and applied by spraying to this cover soil. The cover soil was thoroughly mixed to distribute the test compound throughout the cover soil, and was then applied as a cover layer over the seeds. Untreated soil was used as a cover layer for control pots. After treatment the plants were placed in a greenhouse where they received 0.64 cm of overhead irrigation. All subsequent watering consisted of a light overhead mist and/or subirrigation as needed for germination and growth. Tables 9 and 10 below relate to warm season plant species which were placed after pre-emergence treatment in a greenhouse with a 30/21° C. day/night temperature regime. Tables 11 and 12 below relates to cool season plant species placed after pre-emergence treatment in a greenhouse or growth chamber with an 18/13° C. day/night temperature regime. Only the compounds of Examples 1, 6, 8, 11, 13 and 15-20 were included in PPI tests.
(§4) Approximately 14 days after planting and treating, the plants were observed and herbicidal efficacy recorded as percent inhibition by comparison with untreated plants.

[4] = system: CHEAL (common lambsquarters); assay: as above; format: in vivo, Chenopodium album; settings: for PPI activity (GR80) CHEAL: pre-plant incorporated, GR80 = lowest tested rate with 80% or greater inhibition, approx. 14 days after treating, 30/21° C.
Procedure: as §2, §3, §4

[5] = system: VERPE (creeping speedwell); assay: Pre-plant incorporated (PPI) herbicidal activity, cool season; format: in vivo, Veronica persicaria; settings: for PPI activity GR80, VERPE: pre-plant incorporated, lowest tested rate with 80% or greater inhibition, about 14 days; for inhibition at 10 g/ha / inhibition at 30 g/ha / inhibition at 100 g/ha / inhibition at 300 g/ha / inhibition at 900 g/ha: weed, PPI application, read-out: Percent inhibition VERPE
Procedure: as §2, §3, §4

SMILES | Pre-emergence activity (GR80) PANDI (PANDI (fall panicum)) | Pre-emergence activity GR80, VERPE [1] | Pre-emergence activity GR80, LAMPU [2] | Post-emergence activity GR80, AEGCY [3] | inhibition at 10 g/ha (DATST (jimsonweed)) | inhibition at 30 g/ha (DATST (jimsonweed); 30 g/ha) | inhibition at 100 g/ha (DATST (jimsonweed); 100 g/ha) | inhibition at 300 g/ha (DATST (jimsonweed); 300 g/ha) | inhibition at 900 g/ha (DATST (jimsonweed); 900 g/ha) | PPI activity (GR80) DATST (DATST (jimsonweed)) | PPI activity (GR80) CHEAL [4] | PPI activity GR80, VERPE [5] | inhibition at 10 g/ha [5] | inhibition at 30 g/ha [5] | inhibition at 100 g/ha [5] | inhibition at 300 g/ha [5] | inhibition at 900 g/ha [5] | also measured
CCN(CC)C(=O)n1cnc(S(=O)(=O)C(F)(F)C(F)(F)SC)n1 [Example 14] | 100 g/ha | 300 g/ha | 300 g/ha | [empty] | – | – | – | – | – | – | – | – | – | – | – | – | – | –
CCN(CC)C(=O)n1cnc(S(=O)(=O)C(F)(F)F)n1 [Example 2] | 30 g/ha | 10 g/ha | 10 g/ha | – | – | – | – | – | – | – | – | – | – | – | – | – | – | Percent inhibition DATST (DATST (jimsonweed); 30 g/ha): 0%; Percent inhibition DATST (DATST (jimsonweed); 100 g/ha): 10%; Percent inhibition DATST (DATST (jimsonweed); 300 g/ha): 80%; Percent inhibition DATST (DATST (jimsonweed); 900 g/ha): 70%; Percent inhibition CHEAL ([4]; PPI application, 30 g/ha): 90%; Percent inhibition CHEAL ([4]; PPI application, 100 g/ha): 95%; Percent inhibition CHEAL ([4]; PPI application, 300 g/ha): 100%; Percent inhibition CHEAL ([4]; PPI application, 900 g/ha): 100%
C=C(C)CC(F)(F)S(=O)(=O)c1ncn(C(=O)N(CC)CC)n1 [Example 18] | – | 300 g/ha | 300 g/ha | [empty] | 0% | 0% | 0% | 60% | 100% | 300 g/ha | 30 g/ha | [empty] | 0% | 20% | 80% | 95% | 99% | –
CCSC(F)(F)S(=O)(=O)c1ncn(C(=O)N(CC)CC)n1 [Example 8, 1-(N,N-diethylcarbamoyl)-3-[difluoro(ethylthio)methylsulfonyl]-1,2,4-triazole] | – | 30 g/ha | [empty] | [empty] | – | 30% | 60% | 100% | 100% | 100 g/ha | 30 g/ha | 100 g/ha | – | – | – | – | – | inhibition at 30 g/ha ([4]; Chenopodium album, PPI application, 30 g/ha, read-out: Percent inhibition CHEAL): 70%; inhibition at 100 g/ha ([4]; Chenopodium album, PPI application, 100 g/ha, read-out: Percent inhibition CHEAL): 100%; inhibition at 300 g/ha ([4]; Chenopodium album, PPI application, 300 g/ha, read-out: Percent inhibition CHEAL): 100%; inhibition at 900 g/ha ([4]; Chenopodium album, PPI application, 900 g/ha, read-out: Percent inhibition CHEAL): 100%
C=C(Br)CC(F)(F)S(=O)(=O)c1ncn(C(=O)N(CC)CC)n1 [Example 19] | – | 300 g/ha | 30 g/ha | [empty] | 0% | 0% | 0% | 90% | 99% | 300 g/ha | 100 g/ha | [empty] | 0% | 40% | 20% | 20% | 99% | –
